The results in this text go back to article PMC5974752, “Bax/Tubulin/Epithelial-Mesenchymal Pathways Determine the Efficacy of Silybin Analog HM015k in Colorectal Cancer Cell Growth and Metastasis” (Frontiers in Pharmacology, 2018).

As a reminder, the IC50 is the midpoint of a concentration-inhibition curve.

The test system of assay [1] is COLO 205 cell line. Briefly: Transwell migration assay. The class given is cell-based. As to conditions: 2 and 4 μM, data not shown. As to the method:
The effect of compound 15k on the invasiveness of LOVO was tested using 24 trans-well inserts with an […]. The addition of the insert to the well forms two chambers (upper and lower), where the upper chamber was used to grow the cells on the porous membrane. The lower chamber was filled with 600 μl of cell-free DMEM medium. A 200 μl of cell suspension was added to each insert and allowed to attach for 1 h. The test compound was added in different concentrations and incubated with the cells for 24 h. […] Finally, the remaining migrated cells were fixed by methanol and dyed with 0.1% crystal violet dye and observed with an EVOS microscope. The number of migrated cells was counted and compared between the treated and control cells.
The development of cancer metastasis is dependent on the migration and invasive properties of cancerous cells (van Zijl et al., [2011]). The wound healing and transwell migration assays were used with LOVO cells, as a model for metastatic CRC as it is characterized by a high level of invasiveness (Fan et al., [2015]). The wound healing assay is a well-established method to detect and analyze cell migration potential (Liang et al., [2007]). […] The effect of compound 15k on the invasiveness of COLO 205 cell line was also measured using trans-well migration assay. […] 15j also reversed cell migration and metastasis at different concentrations.

The subject of assay [2] is HCT116. Briefly: Cell cycle analysis (PI, flow cytometry). The class given is cell-based, human. As to conditions: 0, 2 or 4 μM, 12 h, data not shown. As to the method: Cell cycle analysis was performed as described previously (Pozarowski and Darzynkiewicz, [2004]). Briefly, a 6 well plate was used for the seeding of HCT116 at 1 × 10^6 cells/well. The next day, 15j and 15k (0, 2, or 4 μM) were added and incubated with the seeded cells. After 12 h, the cells were trypsinzed with 0.25% trypsin, 2.21 mM EDTA, 1X, washed, counted and resuspended in 0.5 ml of ice cold PBS. PI stain was added to each suspension for at least 15 min to stain the DNA. The cell cycle analysis and cell distribution for each phase was measured using a BD Accuri™ C6 flow cytometer (BD Biosciences, Becton-Dickinson, San Jose, CA, USA) and analyzed using FCS express 5 plus De Novo software (Glendale, CA, USA).
For orientation: A flow cytometer gives signals particle by particle.

Assay [3] deals with HCT116 cell. Briefly: Cell morphology (EMT reversal). The class given is cell-based, human. As to conditions: HCT116 after incubation with 15k. As to the method: The aberrant, over-activation of embryonic signaling pathways, including Wnt/β-catenin/epithelial-mesenchymal transition (EMT), is involved in the development, progression, metastasis, and resistance of CRC (Du and Shim, [2016]). […] To test this hypothesis, the morphology of HCT116 cell was observed following incubation with 15k. […] We then determined the efficacy of compound 15k on the expression of (1) β-catenin; (2) E-cadherin, and (3) N-cadherin in CRC cells.

The subject of assay [4] is HCT116 cells. Briefly: Hoechst staining of nuclear condensation. As to conditions: 2 or 4 μM, overnight, vs vehicle. The class given is cell-based, human. As to the method:
Nuclear condensation was detected using Hoechst 33258 DNA dye. HCT116 cells were seeded at 1 × 10^5 cells/well in 6-well plates and incubated overnight at 37°C. The following day, cells were exposed to 15k or 15j (0, 2, and 4 μM) and further incubated overnight at 37°C. The cells were fixed and stained with Hoechst 33258 for at least 30 min. An EVOS digital microscope was used to detect the stained nucleus fluorescence at wavelengths of 460–490 nm.

Assay [5] relates to HCT116 Bax knockout (Bax–/–) cells. Nature of the assay: MTT assay, knockout cells. As to conditions: Homo sapiens, HCT-116, p < 0.05 vs WT. The class given is cell-based. As to the method: (§1) Colorectal cancer cell lines, including HCT116, LOVO, and S1, with varying drug sensitivity and invasiveness, were grown as adherent monolayer in culturing flasks. Normal epithelial cells lines (Chinese hamster ovarian: CHO, normal epithelial colon: CRL1459) were also grown. Both cancerous and normal cell lines were kindly obtained from the late Dr. Gary Kruh (University of Chicago, Illinois). In addition, CRC HCT116 Bax knockout (Bax–/–) cells were kindly provided by Dr. Bert Vogelstein (Johns Hopkins, Baltimore) (Zhang et al., [2000]), Bak knockout (Bak–/–) and Bax-Bak double knockout (Bax–/– and Bak–/–) cells were kindly provided by Richard Youle (NIH, […], MD) (Wang and Youle, [2012]). DMEM, with 4.5 g of glucose, was supplemented with 10% fetal bovine serum (FBS) and 1% penicillin/streptomycin and used for all cell lines. The cells were cultured in a humidified incubator containing 5% CO2 at 37°C. All of cells were checked and confirmed to be free of fungi and mycoplasma. Cells were obtained from frozen stocks and cell passaging (up to P4) was performed at 80% cell confluency by PBS and trypsin + 2.2 mM EDTA.
(§2) The 3-(4,5-dimethylthiazol-2-yl)-2,5-diphenyltetrazolium bromide (MTT) assay was used to determine the sensitivity of the different CRC cells to the novel silybin derivatives (Hussein et al., [2017]; Manivannan et al., [2017]). The cells were seeded at a density of 4,000–5,000 cells/well in 96 well plates and incubated with serial dilutions of the compounds (0, 0.1, 0.3, 1, 3, 10, 30, and 100 μM). The MTT dye (4 mg/ml) was added after 72 h of incubation and incubated with the cells for an additional 4 h at 37°C. […] A DTX 880 multimode detector (Beckman Coulter Life, Indianapolis IN, USA) was used to determine the absorbance readings at a wavelength of 570 nm. The IC50 values were determined based on 3 separate experiments, with each experiment done in triplicate. The selectivity of the compounds was determined by comparing their cytotoxicity for CRC to normal epithelial cell lines (CHO, and CRL1459).
(Tetrazolium assays rely on reduction of a dye to a coloured formazan, in cell work by metabolically active cells.)

Assay [6] deals with HCT116 Bax-Bak double knockout (DKO) cells. Nature of the assay: MTT assay, knockout cells. The class given is cell-based. The settings on record: Homo sapiens, HCT-116, p < 0.05 vs WT. The protocol: as §1, §2
The subject of assay [7] is HCT116 Bak knockout (Bak–/–) cells. Briefly: MTT assay, knockout cells. The class given is cell-based. The settings on record: Homo sapiens, HCT-116, not significantly different from WT. As to the method: as §1, §2
For assay [8], the system named is S1. Nature of the assay: MTT assay. The class given is cell-based. As to conditions: Homo sapiens, 72 h incubation, mean ± SD of three experiments, read-out: IC50 ± SD, Colon S1. As to the method:
The 3-(4,5-dimethylthiazol-2-yl)-2,5-diphenyltetrazolium bromide (MTT) assay was used to determine the sensitivity of the different CRC cells to the novel silybin derivatives (Hussein et al., [2017]; Manivannan et al., [2017]). The cells were seeded at a density of 4,000–5,000 cells/well in 96 well plates and incubated with serial dilutions of the compounds (0, 0.1, 0.3, 1, 3, 10, 30, and 100 μM). The MTT dye (4 mg/ml) was added after 72 h of incubation and incubated with the cells for an additional 4 h at 37°C. Following incubation, the media was discarded and the formazan crystals were dissolved by adding 100 μL of DMSO to each well. A DTX 880 multimode detector (Beckman Coulter Life, Indianapolis IN, USA) was used to determine the absorbance readings at a wavelength of 570 nm. The IC50 values were determined based on 3 separate experiments, with each experiment done in triplicate. The selectivity of the compounds was determined by comparing their cytotoxicity for CRC to normal epithelial cell lines (CHO, and CRL1459).

The test system of assay [9] is HCT116 cells. Nature of the assay: CellTiter-Glo luminescent assay (ATP content). The class given is cell-based. As to conditions: Homo sapiens, HCT-116, data not shown, read-out: IC50, ATP depletion. The protocol: Subsequently, we conducted experiments to determine if compound 15k produced a time-dependent effect on cell death. […] The HCT116 cells had intense fluorescence over time compared to the cells incubated with vehicle, with a significant difference in the number of dead cells after 24 h of incubation with 2 μM of 15k. […] The cytotoxicity of 15k and 15j in HCT116 cells were further determined using a more homogeneous CellTiter-Glo® luminescent cell based assay that measures the ATP content in the metabolically active cells.

Consider `O=C(/C=C/c1cccc(OCc2ccccc2)c1)c1ccc(O)cc1` [Compound 15k], for which the trans-well migration entry in assay [1] was “significantly inhibited the migration”. Also, the “effect on the cell cycle” value in assay [2] was “significant concentration-dependent increase in the number of cells in the G2 and S phases”. For the same molecule, in [3], the cell morphology entry is on record as “significantly changed the morphology of the cells from mesenchymal to a more epithelial-like appearance”. For the same molecule, the “nuclear condensation / fragmentation” value in assay [4] was “significant increase in blue fluorescence, as well as highly condensed, fragmented nuclei chromatin”. For the same molecule, the IC50 amounted to 10.9 µM in [5]; 13.6 µM in assay [6]; 3.6 µM in assay [7]; 1900 ± 900 nM in assay [8]; 760 nM in [9].
